Laboratory results as given in patent US12077503B2, “Substituted cyclic amides and their use as herbicides” (FMC CORPORATION, priority 2015, dated 2024).

Assays:
Format in all cases: in vivo
[1] = test system: pigweed (Amaranthus retroflexus); test: Test A preemergence; settings: Amaranthus retroflexus, pre-emergence, 240 h, preemergence, read-out: Plant response rating, Pigweed
[2] = test system: giant foxtail (Setaria faberii); test: Test A preemergence; settings: Setaria faberi, pre-emergence, 240 h, preemergence, read-out: Plant response rating, Foxtail, Giant
Procedure, shortened: (§1)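 Visual injury scores from 0, no effect, to 100, complete control, were assigned versus untreated controls roughly 10 d after treatment in the greenhouse. Test chemicals, formulated with surfactant in a non-phytotoxic solvent, were applied to planted seeds as a preemergence soil spray or postemergence to one- to two-leaf plants 2 to 10 cm tall, in loam–sand soil.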

[3] = test system: ryegrass, Italian (Italian ryegrass, Lolium multiflorum); test: Test A preemergence; settings: Lolium multiflorum, pre-emergence, 240 h, preemergence, read-out: Plant response rating, Ryegrass, Italian
Procedure, shortened: as §1

Kochia (Kochia scoparia) [4] = test: Test A preemergence; settings: Bassia scoparia, pre-emergence, 240 h, preemergence, read-out: Plant response rating, Kochia
Procedure, shortened: as §1

[5] = test system: ragweed (common ragweed, Ambrosia elatior); test: Test A preemergence; settings: Ambrosia artemisiifolia, pre-emergence, 240 h, preemergence, read-out: Plant response rating, Ragweed
Procedure, shortened: as §1

[6] = test system: barnyardgrass (Echinochloa crus-galli); test: Test A preemergence; settings: Echinochloa crus-galli, pre-emergence, 240 h, preemergence, read-out: Plant response rating, Barnyardgrass
Procedure, shortened: as §1

[7] = test system: pigweed (Amaranthus retroflexus); test: Test A postemergence; settings: Amaranthus retroflexus, post-emergence, 240 h, 125 g ai/ha, postemergence; visual injury after approximately 10 d; 0 to 100 scale (0 no effect, 100 complete control); read-out: Plant response rating, Pigweed
Procedure, shortened: as §1

[8] = test system: giant foxtail (Setaria faberii); test: Test A postemergence; settings: Setaria faberi, post-emergence, 240 h, 125 g ai/ha, postemergence; visual injury after approximately 10 d; 0 to 100 scale (0 no effect, 100 complete control); read-out: Plant response rating, Foxtail, Giant
Procedure, shortened: as §1

[9] = test system: blackgrass (Alopecurus myosuroides); test: Test A postemergence; settings: Alopecurus myosuroides, post-emergence, 240 h, 125 g ai/ha, postemergence; visual injury after approximately 10 d; 0 to 100 scale (0 no effect, 100 complete control); read-out: Plant response rating, Blackgrass
Procedure, shortened: as §1

[10] = test system: ryegrass, Italian (Italian ryegrass, Lolium multiflorum); test: Test A postemergence; settings: Lolium multiflorum, post-emergence, 240 h, 125 g ai/ha, postemergence; visual injury after approximately 10 d; 0 to 100 scale (0 no effect, 100 complete control); read-out: Plant response rating, Ryegrass, Italian
Procedure, shortened: as §1

[11] = test system: Galium (catchweed bedstraw, Galium aparine); test: Test A postemergence; settings: Galium, post-emergence, 240 h, 125 g ai/ha, postemergence; visual injury after approximately 10 d; 0 to 100 scale (0 no effect, 100 complete control); read-out: Plant response rating, Galium
Procedure, shortened: as §1

Kochia (Kochia scoparia) [12] = test: Test A postemergence; settings: Bassia scoparia, post-emergence, 240 h, 125 g ai/ha, postemergence; visual injury after approximately 10 d; 0 to 100 scale (0 no effect, 100 complete control); read-out: Plant response rating, Kochia
Procedure, shortened: as §1

[13] = test system: ragweed (common ragweed, Ambrosia elatior); test: Test A postemergence; settings: Ambrosia artemisiifolia, post-emergence, 240 h, 125 g ai/ha, postemergence; visual injury after approximately 10 d; 0 to 100 scale (0 no effect, 100 complete control); read-out: Plant response rating, Ragweed
Procedure, shortened: as §1

[14] = test system: barnyardgrass (Echinochloa crus-galli); test: Test A postemergence; settings: Echinochloa crus-galli, post-emergence, 240 h, 125 g ai/ha, postemergence; visual injury after approximately 10 d; 0 to 100 scale (0 no effect, 100 complete control); read-out: Plant response rating, Barnyardgrass
Procedure, shortened: as §1

[15] = test system: wheat (Triticum aestivum); test: Test A postemergence; settings: Triticum aestivum, post-emergence, 240 h, 125 g ai/ha, postemergence; visual injury after approximately 10 d; 0 to 100 scale (0 no effect, 100 complete control); read-out: Plant response rating, Wheat
Procedure, shortened: as §1

corn (Zea mays) = test: Test A postemergence; settings: Zea mays, post-emergence, 240 h, 125 g ai/ha, postemergence; visual injury after approximately 10 d; 0 to 100 scale (0 no effect, 100 complete control)
Procedure, shortened: as §1

[16] = 125 g ai/ha, visual rating after approx. 10 d, 0 to 100 scale where 0 is no effect and 100 is complete control
[17] = 500 g ai/ha, 0 to 100 scale, 0 = no effect, 100 = complete control

Work on `CCc1cc(CC)cc([C@H]2CN(C)C(=O)[C@@H]2C(=O)Nc2ccccc2C(F)(F)F)c1` [Compound 737] yielded a pest or weed control at 125 g/ha [1, 16] of 0%, a pest or weed control at 500 g/ha [1, 17] of 0% and a pest or weed control at 125 g/ha [2, 16] of 90%. It also gave a pest or weed control at 500 g/ha [2, 17] of 90%, a pest or weed control at 125 g/ha [3, 16] of 40% and a pest or weed control at 500 g/ha [3, 17] of 70%. It also gave a pest or weed control at 125 g/ha (Kochia (Kochia scoparia) [4]; [16]) of 40%, a pest or weed control at 500 g/ha (Kochia (Kochia scoparia) [4]; [17]) of 50% and a pest or weed control at 125 g/ha [5, 16] of 0%. For the same molecule, the pest or weed control at 500 g/ha [5, 17] was 0%, the pest or weed control at 125 g/ha [6, 16] was 70% and the pest or weed control at 500 g/ha [6, 17] was 80%. The pest or weed control at 125 g/ha [7] was 20%, the pest or weed control at 125 g/ha [8] was 70% and the pest or weed control at 125 g/ha [9] was 30%. It also gave a pest or weed control at 125 g/ha [10] of 50%, a pest or weed control at 125 g/ha [11] of 30% and a pest or weed control at 125 g/ha (Kochia (Kochia scoparia) [12]) of 0%. It also gave a pest or weed control at 125 g/ha [13] of 0%, a pest or weed control at 125 g/ha [14] of 40% and a plant injury at 125 g/ha [15] of 40%. It also gave a Corn plant response rating (crop injury, 0 = no effect, 100 = complete kill) at 125 g/ha (corn (Zea mays)) of 40%.
